Here are results for 1 compound from patent publication US8252799B2, “Hexahydro-1H-4,7-methanoisoindole-1,3-dione compounds” (Merck Sharp & Dohme Corp., priority 2007, dated 2012).

One test addresses T1, 5HT1A (native) (Homo sapiens, UniProt P08908).
T1 construct: 5HT1A (native) 8 nM
T1 sequence (P08908 1-422): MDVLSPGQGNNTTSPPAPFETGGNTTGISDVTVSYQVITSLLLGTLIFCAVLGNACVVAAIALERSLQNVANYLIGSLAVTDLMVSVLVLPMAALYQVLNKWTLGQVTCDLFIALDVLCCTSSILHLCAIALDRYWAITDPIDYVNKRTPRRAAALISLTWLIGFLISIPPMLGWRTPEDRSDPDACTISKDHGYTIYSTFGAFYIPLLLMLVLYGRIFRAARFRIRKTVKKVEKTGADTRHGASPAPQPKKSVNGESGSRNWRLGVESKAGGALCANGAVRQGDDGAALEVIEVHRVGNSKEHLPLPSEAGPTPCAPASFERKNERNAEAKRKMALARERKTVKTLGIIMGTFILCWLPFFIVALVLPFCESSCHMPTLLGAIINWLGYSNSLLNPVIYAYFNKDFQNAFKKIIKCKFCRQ
The experiment in a line: In Vitro Affinity (Ki) on Human Receptors: 5HT1A (native). In kind it is binding. The conditions noted are these: human receptor.

The target of test [1] is T2, α2C (Homo sapiens, UniProt P18825).
T2 sequence (P18825 1-462): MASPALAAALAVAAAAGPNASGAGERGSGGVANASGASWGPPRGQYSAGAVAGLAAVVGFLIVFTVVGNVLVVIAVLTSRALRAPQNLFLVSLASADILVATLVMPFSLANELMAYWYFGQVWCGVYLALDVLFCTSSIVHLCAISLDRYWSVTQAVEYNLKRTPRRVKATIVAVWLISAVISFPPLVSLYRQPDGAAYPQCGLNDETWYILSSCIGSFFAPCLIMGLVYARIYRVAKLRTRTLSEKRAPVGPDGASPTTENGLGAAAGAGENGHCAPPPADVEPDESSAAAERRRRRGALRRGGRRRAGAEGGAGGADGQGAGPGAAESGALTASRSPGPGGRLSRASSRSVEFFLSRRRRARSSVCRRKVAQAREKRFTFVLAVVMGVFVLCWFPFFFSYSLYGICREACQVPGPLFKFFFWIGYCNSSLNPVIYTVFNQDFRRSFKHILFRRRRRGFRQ
The experiment in a line: In Vitro Affinity (Ki) on Human Receptors: α2C. In kind it is binding. The conditions noted are these: human receptor.

The target of test [2] is T3, α2A (Homo sapiens, UniProt P08913).
T3 sequence (P08913 1-465): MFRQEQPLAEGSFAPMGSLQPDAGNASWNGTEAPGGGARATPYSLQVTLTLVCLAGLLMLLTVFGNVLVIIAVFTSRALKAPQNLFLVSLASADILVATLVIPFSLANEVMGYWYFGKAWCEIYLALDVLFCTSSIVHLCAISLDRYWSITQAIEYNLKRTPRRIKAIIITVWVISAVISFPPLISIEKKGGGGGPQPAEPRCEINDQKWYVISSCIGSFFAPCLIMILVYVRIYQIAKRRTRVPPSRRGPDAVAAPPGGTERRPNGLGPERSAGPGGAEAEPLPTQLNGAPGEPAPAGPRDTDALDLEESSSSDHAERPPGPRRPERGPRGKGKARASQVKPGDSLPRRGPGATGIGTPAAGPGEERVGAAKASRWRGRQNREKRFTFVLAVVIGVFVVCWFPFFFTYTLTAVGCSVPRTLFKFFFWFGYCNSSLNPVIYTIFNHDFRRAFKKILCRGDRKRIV
Kind of test: In Vitro Affinity (Ki) on Human Receptors: α2A. In kind it is binding. The conditions noted are these: human receptor.

Test [3] concerns the target T4, D2 (Homo sapiens, UniProt P14416). The experiment in a line: In Vitro Affinity (Ki) on Human Receptors: D2. To be noted: human receptor. Type of test: binding.
Test [4] addresses T5, 5HT2A (Homo sapiens, UniProt P28223). The experiment in a line: In Vitro Affinity (Ki) on Human Receptors: 5HT2A. In kind it is binding. The conditions noted are these: human receptor.
The next test has as its target D3 (Homo sapiens, UniProt P35462). Kind of test: In Vitro Affinity (Ki) on Human Receptors: D3. Type of test: binding. To be noted: human receptor.
Test [5] concerns the target T6, 5HT2C (Homo sapiens, UniProt P28335). The experiment in a line: In Vitro Affinity (Ki) on Human Receptors: 5HT2C. In kind it is binding. To be noted: human receptor.
Test [6] addresses T7, H1 (Homo sapiens, UniProt P35367). Kind of test: In Vitro Affinity (Ki) on Human Receptors: H1. To be noted: human receptor. In kind it is binding.
The target of test [7] is T8, D1 (Homo sapiens, UniProt P21728). Kind of test: In Vitro Affinity (Ki) on Human Receptors: D1. In kind it is binding. The conditions noted are these: human receptor.
The next test addresses T9, α1A (Homo sapiens, UniProt P35348).
T9 sequence (P35348 1-466): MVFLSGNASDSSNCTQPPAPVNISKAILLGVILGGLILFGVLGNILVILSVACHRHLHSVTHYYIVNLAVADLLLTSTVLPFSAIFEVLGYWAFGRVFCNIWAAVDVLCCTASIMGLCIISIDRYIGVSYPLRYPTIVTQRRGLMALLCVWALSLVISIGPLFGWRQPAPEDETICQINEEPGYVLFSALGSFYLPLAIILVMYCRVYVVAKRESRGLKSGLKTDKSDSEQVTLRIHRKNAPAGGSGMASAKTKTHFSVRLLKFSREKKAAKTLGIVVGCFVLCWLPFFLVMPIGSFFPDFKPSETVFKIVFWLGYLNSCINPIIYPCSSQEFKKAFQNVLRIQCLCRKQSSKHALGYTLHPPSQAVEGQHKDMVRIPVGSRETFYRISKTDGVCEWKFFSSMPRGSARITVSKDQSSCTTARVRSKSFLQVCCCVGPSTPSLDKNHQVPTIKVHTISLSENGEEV
Kind of test: In Vitro Affinity (Ki) on Human Receptors: α1A. The conditions noted are these: human receptor. In kind it is binding.

For the next test, the target named is T10, α1D (Homo sapiens, UniProt P25100).
T10 sequence (P25100 1-572): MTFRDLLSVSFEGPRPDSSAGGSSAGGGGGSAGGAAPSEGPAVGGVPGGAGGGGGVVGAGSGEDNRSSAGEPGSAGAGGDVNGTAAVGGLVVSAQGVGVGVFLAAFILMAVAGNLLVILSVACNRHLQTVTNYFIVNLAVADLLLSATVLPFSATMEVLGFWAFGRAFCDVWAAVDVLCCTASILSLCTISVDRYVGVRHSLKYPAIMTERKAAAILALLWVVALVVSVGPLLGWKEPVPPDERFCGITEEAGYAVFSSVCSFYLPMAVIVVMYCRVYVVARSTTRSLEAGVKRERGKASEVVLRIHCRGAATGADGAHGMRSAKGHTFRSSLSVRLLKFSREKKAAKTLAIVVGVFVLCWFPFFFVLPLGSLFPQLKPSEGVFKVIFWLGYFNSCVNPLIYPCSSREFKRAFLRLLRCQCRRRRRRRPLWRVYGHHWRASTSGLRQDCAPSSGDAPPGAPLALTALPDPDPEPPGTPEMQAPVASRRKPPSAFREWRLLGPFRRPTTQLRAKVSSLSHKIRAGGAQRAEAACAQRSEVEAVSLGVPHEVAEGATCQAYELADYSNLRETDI
Kind of test: In Vitro Affinity (Ki) on Human Receptors: α1D. In kind it is binding. To be noted: human receptor.

Test [8] has as its target T11, hERG (Homo sapiens, UniProt Q12809). Kind of test: In Vitro Affinity (Ki) on Human Receptors: hERG. In kind it is binding. For orientation: Block of hERG is tested as a sign of cardiac risk.
Another test has as its target T12, 5HT1A (Homo sapiens, UniProt P08908).
T12 sequence (P08908 1-422): T1 sequence (P08908 1-422)
The experiment in a line: Functional Potency on Human Receptors: 5HT1A. In kind it is biochemical. The conditions noted are these: human receptor.

Test [9] deals with T2, α2C. The experiment in a line: Functional Potency (IC50) on Human Receptors: α2C. Type of test: biochemical. To be noted: human receptor.
Test [10] has as its target T3, α2A. Kind of test: Functional Potency (IC50) on Human Receptors: α2A. Type of test: biochemical. The conditions noted are these: human receptor.
The target in test [11] is T5, 5HT2A. The experiment in a line: Functional Potency (IC50) on Human Receptors: 5HT2A. Type of test: biochemical. The conditions noted are these: human receptor.
Test [12] deals with T4, D2. Kind of test: Functional Potency (IC50) on Human Receptors: D2. Type of test: biochemical. To be noted: human receptor.
Test [13] has as its target T8, D1. The experiment in a line: Functional Potency (IC50) on Human Receptors: D1. In kind it is biochemical. To be noted: human receptor.
Test [14] addresses T6, 5HT2C. Kind of test: Functional Potency (IC50) on Human Receptors: 5HT2C. Type of test: biochemical. The conditions noted are these: human receptor.
Test [15] concerns the target T7, H1. Kind of test: Functional Potency (IC50) on Human Receptors: H1. Type of test: biochemical. The conditions noted are these: human receptor.
The target of test [16] is T11, hERG. The experiment in a line: Functional Potency (IC50) on Human Receptors: hERG. Type of test: biochemical.

Structures are written as SMILES. A value given as a limit tells only on which side of the number the result lay.

T4 sequence (P14416 whole entry): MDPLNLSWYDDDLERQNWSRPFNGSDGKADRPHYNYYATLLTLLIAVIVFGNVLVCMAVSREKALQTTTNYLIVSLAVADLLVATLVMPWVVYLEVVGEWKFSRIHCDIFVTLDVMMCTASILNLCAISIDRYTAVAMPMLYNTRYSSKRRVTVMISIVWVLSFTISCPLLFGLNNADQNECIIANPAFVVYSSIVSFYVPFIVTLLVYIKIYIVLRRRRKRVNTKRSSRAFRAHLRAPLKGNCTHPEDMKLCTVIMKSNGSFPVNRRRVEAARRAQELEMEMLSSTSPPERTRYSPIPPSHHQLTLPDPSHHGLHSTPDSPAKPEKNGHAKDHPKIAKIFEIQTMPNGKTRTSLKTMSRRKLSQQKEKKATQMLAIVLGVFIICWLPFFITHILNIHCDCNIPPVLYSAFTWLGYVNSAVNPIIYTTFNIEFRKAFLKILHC
T8 sequence (P21728 whole entry): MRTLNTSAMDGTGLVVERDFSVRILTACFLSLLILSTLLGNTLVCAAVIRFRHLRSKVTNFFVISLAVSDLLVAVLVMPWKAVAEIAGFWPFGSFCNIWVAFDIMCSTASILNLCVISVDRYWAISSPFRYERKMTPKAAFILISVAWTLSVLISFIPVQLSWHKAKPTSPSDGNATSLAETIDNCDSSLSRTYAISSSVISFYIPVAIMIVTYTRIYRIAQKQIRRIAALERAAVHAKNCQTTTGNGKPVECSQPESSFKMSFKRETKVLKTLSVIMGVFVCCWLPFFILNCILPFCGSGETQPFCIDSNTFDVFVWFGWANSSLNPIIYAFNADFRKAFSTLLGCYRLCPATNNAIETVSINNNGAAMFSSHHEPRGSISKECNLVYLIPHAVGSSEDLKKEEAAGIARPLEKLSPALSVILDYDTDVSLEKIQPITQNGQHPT
T7 sequence (P35367 whole entry): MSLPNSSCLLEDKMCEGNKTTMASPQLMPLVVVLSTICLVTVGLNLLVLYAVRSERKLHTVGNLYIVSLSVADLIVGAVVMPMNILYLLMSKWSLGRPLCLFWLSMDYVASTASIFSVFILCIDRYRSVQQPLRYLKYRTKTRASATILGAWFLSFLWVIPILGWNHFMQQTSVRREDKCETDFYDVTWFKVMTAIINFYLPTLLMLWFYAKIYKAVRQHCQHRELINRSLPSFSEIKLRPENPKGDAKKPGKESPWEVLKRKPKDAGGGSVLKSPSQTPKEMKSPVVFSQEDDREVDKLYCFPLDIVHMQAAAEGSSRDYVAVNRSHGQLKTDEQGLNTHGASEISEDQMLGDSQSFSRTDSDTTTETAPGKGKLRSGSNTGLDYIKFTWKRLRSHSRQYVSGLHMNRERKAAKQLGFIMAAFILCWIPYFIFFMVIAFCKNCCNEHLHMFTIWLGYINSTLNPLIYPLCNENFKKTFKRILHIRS
T6 sequence (P28335 33-458): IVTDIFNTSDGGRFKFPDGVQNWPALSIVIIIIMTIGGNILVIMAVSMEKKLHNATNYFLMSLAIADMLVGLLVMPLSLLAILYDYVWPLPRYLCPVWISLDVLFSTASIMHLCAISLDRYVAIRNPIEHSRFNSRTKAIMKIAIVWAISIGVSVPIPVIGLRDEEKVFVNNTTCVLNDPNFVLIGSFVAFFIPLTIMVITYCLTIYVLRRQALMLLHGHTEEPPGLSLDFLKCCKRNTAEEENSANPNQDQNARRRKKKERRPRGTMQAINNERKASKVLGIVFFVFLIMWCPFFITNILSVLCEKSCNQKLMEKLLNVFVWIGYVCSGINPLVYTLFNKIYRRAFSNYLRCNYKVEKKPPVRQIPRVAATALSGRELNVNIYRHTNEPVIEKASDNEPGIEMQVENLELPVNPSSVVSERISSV
T5 sequence (P28223 whole entry): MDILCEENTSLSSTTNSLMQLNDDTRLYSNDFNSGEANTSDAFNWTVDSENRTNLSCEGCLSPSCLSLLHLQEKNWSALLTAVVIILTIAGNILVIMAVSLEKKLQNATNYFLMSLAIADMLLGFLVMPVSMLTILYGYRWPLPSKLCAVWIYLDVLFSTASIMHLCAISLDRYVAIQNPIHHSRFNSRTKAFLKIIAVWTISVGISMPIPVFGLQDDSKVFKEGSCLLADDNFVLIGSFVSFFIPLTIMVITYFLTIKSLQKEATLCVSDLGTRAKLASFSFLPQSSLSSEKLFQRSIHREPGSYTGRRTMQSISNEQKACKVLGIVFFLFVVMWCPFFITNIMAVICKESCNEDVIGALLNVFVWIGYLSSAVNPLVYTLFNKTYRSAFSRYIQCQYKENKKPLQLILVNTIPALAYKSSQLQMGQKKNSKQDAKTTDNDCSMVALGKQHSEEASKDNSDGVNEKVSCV
T11 sequence (Q12809 whole entry): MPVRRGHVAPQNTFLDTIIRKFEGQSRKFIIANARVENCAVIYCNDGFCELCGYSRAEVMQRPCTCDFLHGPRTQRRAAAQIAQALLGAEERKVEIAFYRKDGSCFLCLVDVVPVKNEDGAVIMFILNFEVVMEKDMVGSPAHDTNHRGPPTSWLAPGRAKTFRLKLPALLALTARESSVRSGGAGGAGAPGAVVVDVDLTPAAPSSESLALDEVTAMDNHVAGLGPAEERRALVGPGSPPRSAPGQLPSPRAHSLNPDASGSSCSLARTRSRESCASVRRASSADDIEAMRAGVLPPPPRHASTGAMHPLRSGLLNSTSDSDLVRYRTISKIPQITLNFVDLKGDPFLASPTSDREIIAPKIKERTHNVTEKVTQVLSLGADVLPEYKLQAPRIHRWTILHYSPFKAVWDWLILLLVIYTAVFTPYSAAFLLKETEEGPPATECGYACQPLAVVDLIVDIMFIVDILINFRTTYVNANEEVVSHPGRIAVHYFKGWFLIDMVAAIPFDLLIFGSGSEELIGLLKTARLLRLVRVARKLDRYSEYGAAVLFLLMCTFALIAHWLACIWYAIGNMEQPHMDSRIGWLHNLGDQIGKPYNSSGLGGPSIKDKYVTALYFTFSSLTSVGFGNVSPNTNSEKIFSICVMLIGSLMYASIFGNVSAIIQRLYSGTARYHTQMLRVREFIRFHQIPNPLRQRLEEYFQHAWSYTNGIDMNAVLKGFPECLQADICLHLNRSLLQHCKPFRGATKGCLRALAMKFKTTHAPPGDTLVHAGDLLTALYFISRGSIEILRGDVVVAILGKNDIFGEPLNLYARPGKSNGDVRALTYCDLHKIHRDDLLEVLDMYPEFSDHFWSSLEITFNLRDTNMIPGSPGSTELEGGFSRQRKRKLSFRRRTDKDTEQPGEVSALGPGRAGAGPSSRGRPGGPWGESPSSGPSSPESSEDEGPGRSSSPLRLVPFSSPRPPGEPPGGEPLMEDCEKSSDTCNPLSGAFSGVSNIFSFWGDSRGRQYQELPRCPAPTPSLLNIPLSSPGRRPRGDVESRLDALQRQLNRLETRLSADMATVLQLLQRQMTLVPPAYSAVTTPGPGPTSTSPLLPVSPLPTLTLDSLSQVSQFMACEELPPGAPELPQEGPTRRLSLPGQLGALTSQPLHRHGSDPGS
Chain of D3 (P35462 whole entry): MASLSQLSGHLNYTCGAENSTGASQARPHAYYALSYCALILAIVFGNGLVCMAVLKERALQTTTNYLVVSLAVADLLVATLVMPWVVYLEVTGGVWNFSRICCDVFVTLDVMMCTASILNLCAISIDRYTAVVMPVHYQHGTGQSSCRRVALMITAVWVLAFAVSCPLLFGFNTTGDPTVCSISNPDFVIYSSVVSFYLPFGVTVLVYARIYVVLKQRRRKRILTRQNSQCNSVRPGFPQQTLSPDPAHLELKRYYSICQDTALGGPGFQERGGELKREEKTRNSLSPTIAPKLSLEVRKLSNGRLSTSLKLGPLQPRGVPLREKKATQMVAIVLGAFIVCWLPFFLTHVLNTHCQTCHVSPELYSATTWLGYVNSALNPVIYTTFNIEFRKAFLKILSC

By Ki is commonly meant the equilibrium dissociation constant of an inhibitor or competing ligand from its target. A low value points to tighter binding. What is called EC50 is the concentration at which the effect is half-maximal. One may read the IC50 as the midpoint of a concentration-inhibition curve. Low readings indicate greater potency, high ones weaker potency. Regarding `C[C@@]1(O)CC2CC1[C@@H]1C(=O)N(CC3CCCC[C@H]3CN3CCN(c4nsc5ccccc45)CC3)C(=O)[C@H]21` (stereo in doubt) [(3aS,4S,5R,7S,7aR)-2-[((1R,2R)-2-{[4-(1,2-benzisothiazol-3-yl)piperazin-1-yl]methyl}cyclohexyl)methyl]-5-hydroxy-5-methylhexahydro-1H-4,7-methanoisoindole-1,3-dione], the Ki on 5HT1A (native) is 8 nM; on α2C [1], 9 nM; at α2A [2], 59 nM; on D2 [3], 1 nM; on 5HT2A [4], less than 10 nM; on D3 it was 2 nM. In addition, the Ki at 5HT2C [5] was 16 nM; on H1 [6] it was 371 nM; on D1 [7] it was 457 nM; on α1A it was 31 nM; at α1D, 82 nM; at hERG [8], 644 nM. In addition, the EC50 on 5HT1A worked out at 98 nM. For the same compound, the “Functional Potency 5HT1A % max” value at 5HT1A (max response) is 77%. In addition, the half-maximal inhibitory concentration (IC50) on α2C [9] was 160 nM; on α2A [10], 1220 nM; against 5HT2A [11], 32 nM; on D2 [12], 25 nM; against D1 [13], 1650 nM; at 5HT2C [14], 1710 nM. Besides, the IC50 on H1 [15] stood at 3.1 µM; at hERG [16], 4 µM.
